Assay results published in patent publication US8637508B2, “Heterocyclic derivatives and their use in the treatment of neurological disorders” (Novartis AG, priority 2011, dated 2014).
Read-outs that look alike come from different tables or passages of the source.

Columns and labels:
[1] = target: human BACE-2 (Homo sapiens (Human), UniProt Q9Y5Z0); assay: Test 2: Inhibition of human BACE-2; assay type: biochemical
Text: Test 2: Inhibition of Human BACE-2

[2] = target: human BACE-1 (Homo sapiens (Human), UniProt P56817); assay: Test 1: Inhibition of human BACE-1
[3] = mean IC50, recombinant BACE-2, acetate buffer pH 4.5, fluorescence-quenched peptide substrate, read-out: BACE-2 IC50
[4] = read-out: BACE-1 IC50, mean IC50, recombinant BACE-1, acetate buffer pH 4.5, fluorescence-quenched peptide substrate

Sequence of human BACE-1 (P56817 46-457): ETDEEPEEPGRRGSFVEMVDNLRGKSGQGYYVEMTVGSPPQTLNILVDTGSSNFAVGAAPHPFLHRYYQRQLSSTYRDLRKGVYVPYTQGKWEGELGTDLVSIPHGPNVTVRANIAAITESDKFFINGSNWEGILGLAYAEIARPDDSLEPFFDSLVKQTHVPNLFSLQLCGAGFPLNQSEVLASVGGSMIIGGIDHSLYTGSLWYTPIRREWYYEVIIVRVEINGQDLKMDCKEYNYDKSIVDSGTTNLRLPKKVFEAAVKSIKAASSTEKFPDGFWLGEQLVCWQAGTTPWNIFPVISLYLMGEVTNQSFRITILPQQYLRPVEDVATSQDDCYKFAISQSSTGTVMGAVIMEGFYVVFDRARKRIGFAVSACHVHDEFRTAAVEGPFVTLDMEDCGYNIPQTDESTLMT
Sequence of human BACE-2 (Q9Y5Z0 63-473): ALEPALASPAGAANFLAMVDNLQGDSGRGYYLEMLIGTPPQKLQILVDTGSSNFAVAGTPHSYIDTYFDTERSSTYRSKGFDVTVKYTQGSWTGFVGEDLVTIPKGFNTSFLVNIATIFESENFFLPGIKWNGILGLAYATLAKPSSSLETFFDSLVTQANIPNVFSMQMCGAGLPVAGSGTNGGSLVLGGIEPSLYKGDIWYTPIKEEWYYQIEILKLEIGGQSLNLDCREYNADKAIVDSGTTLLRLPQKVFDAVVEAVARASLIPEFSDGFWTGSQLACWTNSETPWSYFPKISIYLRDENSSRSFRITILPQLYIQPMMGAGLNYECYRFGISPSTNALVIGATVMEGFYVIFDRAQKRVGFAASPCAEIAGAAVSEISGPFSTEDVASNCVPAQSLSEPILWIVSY

IC50 [1, 3] [µM]	IC50 [2, 4] [µM]	SMILES	IC50 [1] [µM]	IC50 [2] [µM]
0.007	0.045	Cc1cc(OCF)cnc1C(=O)Nc1ccc(F)c([C@]2(C)CO[C@@](C)(C(F)(F)F)C(N)=N2)n1 [Example 32, 5-Fluoromethoxy-3-methyl-pyridine-2-carboxylic acid [6-((3R,6R)-5-amino-3,6-dimethyl-6-trifluoromethyl-3,6-dihydro-2H-[1,4]oxazin-3-yl)-5-fluoro-pyridin-2-yl]amide]	–	–
0.015	0.093	COc1cnc(C(=O)Nc2ccc(F)c([C@]3(C)CO[C@@](C)(C(F)(F)F)C(N)=N3)n2)c(C)c1 [Example 25, 5-Methoxy-3-methyl-pyridine-2-carboxylic acid [6-((3R,6R)-5-amino-3,6-dimethyl-6-trifluoromethyl-3,6-dihydro-2H-[1,4]oxazin-3-yl)-5-fluoro-pyridin-2-yl]amide]	–	–
–	–	C[C@@]1(c2nc(NC(=O)c3nc4ccn(CC(F)F)c4nc3N)ccc2F)CO[C@@](C)(C(F)(F)F)C(N)=N1 [Example 45, 3-Amino-5-(2,2-difluoro-ethyl)-5H-pyrrolo[2,3-b]pyrazine-2-carboxylic acid [6-((3R,6R)-5-amino-3,6-dimethyl-6-trifluoromethyl-3,6-dihydro-2H-[1,4]oxazin-3-yl)-5-fluoro-pyridin-2-yl]amide]	> 10	> 10
0.43	0.38	Cc1cc(C#N)cnc1C(=O)Nc1cc([C@]2(C)COC(CF)(CF)C(N)=N2)c(F)cn1 [Example 37, 5-Cyano-3-methyl-pyridine-2-carboxylic acid [4-((R)-5-amino-6,6-bis-fluoromethyl-3-methyl-3,6-dihydro-2H-[1,4]oxazin-3-yl)-5-fluoro-pyridin-2-yl]-amide]	–	–
0.33	0.82	Cc1cnc(C(=O)Nc2ccc(F)c([C@]3(C)CO[C@@](C)(C(F)(F)F)C(N)=N3)n2)cn1 [Example 33, 5-Methyl-pyrazine-2-carboxylic acid [6-((3R,6R)-5-amino-3,6-dimethyl-6-trifluoromethyl-3,6-dihydro-2H-[1,4]oxazin-3-yl)-5-fluoro-pyridin-2-yl]amide]	–	–
0.005	0.013	C[C@@]1(c2cccc(NC(=O)c3ncc(Br)cc3Cl)n2)CO[C@@](C)(C(F)(F)F)C(N)=N1 [Example 22, 5-Bromo-3-chloro-pyridine-2-carboxylic acid [6-((3R,6R)-5-amino-3,6-dimethyl-6-trifluoromethyl-3,6-dihydro-2H-[1,4]oxazin-3-yl)-pyridin-2-yl]-amide]	–	–
